Active and inactive are the calls of the source. The rule behind the calls is not given here.
Tests used:
[1] = target: T1, Protein-S-isoprenylcysteine O-methyltransferase (Homo sapiens, UniProt O60725); assay: Inhibition of human isoprenylcysteine carboxyl methyltransferase using [14C]SAM and N-acetyl-S-farnesyl-L-cysteine as substrate at 10 uM after 30 mins by vapor diffusion assay
[2] = target: T1, Protein-S-isoprenylcysteine O-methyltransferase; assay: Inhibition of human isoprenylcysteine carboxyl methyltransferase using [14C]SAM and N-acetyl-S-farnesyl-L-cysteine as substrate after 30 mins by vapor diffusion assay
[3] = target: T1, Protein-S-isoprenylcysteine O-methyltransferase; assay: Activity at human isoprenylcysteine carboxyl methyltransferase using [14C]SAM by vapor diffusion assay relative to AFC
[4] = target: T1, Protein-S-isoprenylcysteine O-methyltransferase; assay: Inhibition of isoprenylcysteine carboxyl methyltransferase in human Jurkat cells assessed as mislocalization of GFP-K-Ras at 10 uM after 24 hrs by fluorescence microscopic analysis; type: cell-based
[5] = target: T1, Protein-S-isoprenylcysteine O-methyltransferase; assay: Un-competitive inhibition of human isoprenylcysteine carboxyl methyltransferase using [14C]SAM and N-acetyl-S-farnesyl-L-cysteine as substrate by Lineweaver-Burk plot analysis
[6] = target: T1, Protein-S-isoprenylcysteine O-methyltransferase; assay: Competitive inhibition of human isoprenylcysteine carboxyl methyltransferase using [14C]SAM and N-acetyl-S-farnesyl-L-cysteine as substrate by Lineweaver-Burk plot analysis
[7] = target: T1, Protein-S-isoprenylcysteine O-methyltransferase; assay: Inhibition of isoprenylcysteine carboxyl methyltransferase in human Jurkat cells assessed as mislocalization of GFP-K-Ras at 45 uM after 24 hrs by fluorescence microscopic analysis; type: cell-based

T1 sequence (O60725 whole entry, the tested form may be a part): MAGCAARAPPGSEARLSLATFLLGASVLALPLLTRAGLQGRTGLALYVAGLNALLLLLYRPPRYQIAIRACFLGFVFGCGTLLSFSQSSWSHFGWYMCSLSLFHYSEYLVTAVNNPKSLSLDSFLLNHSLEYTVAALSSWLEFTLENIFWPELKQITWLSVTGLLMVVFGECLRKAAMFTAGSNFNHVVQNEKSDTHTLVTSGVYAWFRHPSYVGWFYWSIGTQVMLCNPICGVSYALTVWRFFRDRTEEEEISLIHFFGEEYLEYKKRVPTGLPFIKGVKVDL

| SMILES | inhibition [1] | Activity [3] | other results |
| --- | --- | --- | --- |
| CC(C)=CCC/C(C)=C/CC/C(C)=C/CSCCO | 93% | inactive | IC50 [2]: 860 nM; inhibition [4]: Active; Kiuc [5]: 0.43 µM; Kic [6]: 0.44 µM |
| CC(C)=CCC/C(C)=C/CC/C(C)=C/CSCC=O | 13% | inactive |  |
| CC(=O)OCCSC/C=C(\C)CC/C=C(\C)CCC=C(C)C | 27% | inactive |  |
| CC(C)=CCC/C(C)=C/CC/C(C)=C/CSCC1OCCO1 | 9% | inactive |  |
| CC(C)=CCC/C(C)=C/CC/C(C)=C/CSCCCBr | 9% | inactive |  |
| COC(=O)CCSC/C=C(\C)CC/C=C(\C)CCC=C(C)C | 14% | inactive |  |
| CCC(C)(C)C(=O)O[C@H]1C[C@@H](C)C=C2C=C[C@H](C)[C@H](CC[C@@H]3C[C@@H](O)CC(=O)O3)[C@H]21 |  |  | inhibition [7]: Active |
| COC(=O)CSC/C=C(\C)CCC=C(C)C | 0% | inactive |  |
| COC(=O)C(F)(F)SC/C=C(\C)CC/C=C(\C)CCC=C(C)C | 68% | inactive |  |
| CC(=O)SC/C=C(\C)CC/C=C(\C)CCC=C(C)C | 3% | inactive |  |
| CC(C)=CCC/C(C)=C/CC/C(C)=C/CSC(F)(F)CO | 44% | inactive |  |
| CC(C)=CCC/C(C)=C/CC/C(C)=C/CCSCCO | 20% | inactive |  |
| CC(C)=CCC/C(C)=C/CC/C(C)=C/CSCC(O)CO (configuration not stated) | 75% | inactive |  |
| CC(C)=CCC/C(C)=C/CC/C(C)=C/CSCCS | 0% | inactive |  |
| CC(C)=CCC/C(C)=C/CC/C(C)=C/CSCC(N)=O | 47% | inactive |  |
| CC(C)=CCC/C(C)=C/CC/C(C)=C/CC/C(C)=C/CSCCO | 40% | inactive |  |
| CC(C)=CCC/C(C)=C/CC/C(C)=C/CSCC(=O)O | 50% | inactive |  |
| CC(C)=CCC/C(C)=C/CC/C(C)=C/CSCCC(=O)NO | 22% | inactive |  |
| CC(C)=CCC/C(C)=C/CC/C(C)=C/CSC(C)(C)CO | 32% | inactive |  |
| CC(C)=CCC/C(C)=C/CSCCO | 0% | inactive |  |

| SMILES | inhibition [1] | Activity [3] | other results |
| --- | --- | --- | --- |
| CC(C)=CCC/C(C)=C/CC/C(C)=C/CSCCCO | 34% | inactive |  |
| COCCSC/C=C(\C)CC/C=C(\C)CCC=C(C)C | 0% | inactive |  |
| CC(C)=CCC/C(C)=C/CC/C(C)=C/CSCCN | 6% | inactive |  |
| CCOC(=O)NCCSC/C=C(\C)CC/C=C(\C)CCC=C(C)C | 10% | inactive |  |
| CC(C)=CCC/C(C)=C/CC/C(C)=C/CSCC(=O)NO | 36% | inactive |  |
| CC(C)=CCC/C(C)=C/CC/C(C)=C/CSC(C)C | 0% | inactive |  |
| CC(C)=CCC/C(C)=C/CC/C(C)=C/CSCCN=[N+]=[N-] | 11% | inactive |  |
| CC(C)=CCC/C(C)=C/CC/C(C)=C/CSC(C)(C)C(=O)O | 27% | inactive |  |
| CC(C)=CCC/C(C)=C/CC/C(C)=C/CSCC(C)O (configuration not stated) | 72% | inactive |  |
| COC(=O)C(C)(C)SC/C=C(\C)CC/C=C(\C)CCC=C(C)C | 8% | inactive |  |
| CC(C)=CCC/C(C)=C/CC/C(C)=C/CSCCC(=O)O | 28% | 50% |  |
| CC(C)=CCC/C(C)=C/CC/C(C)=C/CSc1ccccc1C(=O)O | 40% |  |  |
| CCOP(=O)(CCCSC/C=C(\C)CC/C=C(\C)CCC=C(C)C)OCC | 20% | inactive |  |
| COC(=O)CSC/C=C(\C)CC/C=C(\C)CC/C=C(\C)CCC=C(C)C | 12% | inactive |  |
| CCCSC/C=C(\C)CC/C=C(\C)CCC=C(C)C | 0% | inactive |  |
| COC(=O)CSC/C=C(\C)CC/C=C(\C)CCC=C(C)C | 28% | inactive |  |
| CC(=O)CSC/C=C(\C)CC/C=C(\C)CCC=C(C)C | 25% | inactive |  |
| COC(=O)CSCC/C=C(\C)CC/C=C(\C)CCC=C(C)C | 12% | inactive |  |
| CC(C)=CCC/C(C)=C/CSCC(=O)O | 0% | inactive |  |
| CCOP(=O)(CCSC/C=C(\C)CC/C=C(\C)CCC=C(C)C)OCC | 36% | inactive |  |

From ChEMBL document CHEMBL3217500, “Identification of a novel nanomolar inhibitor of hIcmt via a carboxylate replacement approach” (Medchemcomm, 2012)
